Values of other authors in US20110015182A1, “NOVEL CARBAMATE AMINO ACID AND PEPTIDE PRODRUGS OF OPIOIDS AND USES THEREOF” (priority 2009, published 2011).

Tests used:
[1] = concurrent oral administration with various opioids; Linn and Steinbrook (2007)
[2] = Norbury et al. (1983)

Structure (SMILES) | adverse GI effects of opioids (constipation, nausea and vomiting) [1] | range of observed oral bioavailabilities [2]
C[C@H]1CN(C[C@H](Cc2ccccc2)C(=O)NCC(=O)O)CC[C@@]1(C)c1cccc(O)c1 [alvimopan] | markedly reduce | 
CCC1(c2cccc(O)c2)CCCCN(C)C1 (centres unmarked) [meptazinol] |  | 2-20%
